From PMC12527922, “Cocaine chemogenetics blunts drug-seeking by synthetic physiology” (Nature, 2025)
Several values for one entry are separate records, joined by “and”; a condition that tells them apart may be missing. Equal entries are not always repeated.

Columns and labels:
[1] = target: α7–GlyR mutant chimeric channels (Homo sapiens, UniProt P36544, L131Q); test: Membrane potential assay screen, mutant α7–GlyR chimeric channels; type: cell-based; details: EC50 at α7 GlyR L131Q, sheet 1d
[2] = target: α7–GlyR mutant chimeric channels (Homo sapiens, UniProt P36544, L141G); test: as above; type: cell-based; details: EC50 at α7 GlyR L141G, sheet 1d
[3] = target: α7–GlyR mutant chimeric channels (Homo sapiens, UniProt P36544, W77F); test: as above; type: cell-based; details: EC50 at a7 GlyR W77F, sheet 1d
[4] = target: α7–GlyR mutant chimeric channels (Homo sapiens, UniProt P36544, Q79A); test: as above; type: cell-based; details: EC50 at α7-GlyR Q79A, sheet 1d
[5] = target: α7–GlyR mutant chimeric channels (Homo sapiens, UniProt P36544, Q79G); test: as above; type: cell-based; details: EC50 at α7-GlyR Q79G, sheet 1d
[6] = target: α7–GlyR mutant chimeric channels (Homo sapiens, UniProt P36544, L141P); test: as above; type: cell-based; details: EC50 at α7 GlyR L141P, sheet 1d
[7] = target: α7–GlyR mutant chimeric channels (Homo sapiens, UniProt P36544, L141A); test: as above; type: cell-based; details: EC50 at α7 GlyR L141A, sheet 1d
[8] = target: α7–GlyR mutant chimeric channels (Homo sapiens, UniProt P36544, P216A); test: as above; type: cell-based; details: EC50 at α7 GlyR P216A, sheet 1d
[9] = target: α7–GlyR mutant chimeric channels (Homo sapiens, UniProt P36544, Q139G); test: as above; type: cell-based; details: EC50 at α7 GlyR Q139G, sheet 1d
[10] = target: α7–GlyR mutant chimeric channels (Homo sapiens, UniProt P36544, L141F); test: as above; type: cell-based; details: EC50 at α7 GlyR L141F, sheet 1d
[11] = target: α7–GlyR mutant chimeric channels (Homo sapiens, UniProt P36544, L131G); test: as above; type: cell-based; details: EC50 at α7GlyR L131G, sheet 1d
[12] = target: α7–GlyR mutant chimeric channels (Homo sapiens, UniProt P36544, P216V); test: as above; type: cell-based; details: EC50 at α7 GlyR P216V, sheet 1d
DAT = details: endogenous target; cited from earlier work
[13] = test system: rats with coca-5HT3 in the LHb; test: Cocaine IVSA (intravenous self-administration); type: in vivo, rat; details: Coca-5HT3 rats
[14] = target: coca-5HT3 (α7(L141G,G175K,Y210F,Y217F)–5HT3) (Homo sapiens, UniProt P36544, G175K/L141G/Y210F/Y217F); test: Membrane potential assay, coca-5HT3 in HEK293; details: for Response / Max normalized Response: coca-5HT3; for Max normalized Response: ED Fig 3b
Chain of coca-5HT3 (α7(L141G,G175K,Y210F,Y217F)–5HT3) (P36544 23-224 L141G/G175K/Y210F/Y217F): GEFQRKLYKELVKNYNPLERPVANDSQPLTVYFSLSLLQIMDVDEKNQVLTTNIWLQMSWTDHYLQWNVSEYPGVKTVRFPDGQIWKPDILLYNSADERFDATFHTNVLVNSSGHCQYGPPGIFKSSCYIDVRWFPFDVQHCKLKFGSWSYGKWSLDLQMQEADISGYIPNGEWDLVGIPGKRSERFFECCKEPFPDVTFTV
Chain of coca-5HT3 (α7(L141G,G175K,Y210F,Y217F)–5HT3) (P23979 242-489, further chain): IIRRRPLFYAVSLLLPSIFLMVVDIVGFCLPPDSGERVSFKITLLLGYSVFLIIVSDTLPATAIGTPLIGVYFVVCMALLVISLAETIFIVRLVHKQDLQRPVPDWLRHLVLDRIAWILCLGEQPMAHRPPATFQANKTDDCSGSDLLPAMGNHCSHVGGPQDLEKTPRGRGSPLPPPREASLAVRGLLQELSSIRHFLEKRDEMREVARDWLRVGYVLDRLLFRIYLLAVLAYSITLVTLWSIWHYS

Chain of α7–GlyR mutant chimeric channels (Homo sapiens, UniProt P36544, L141G) (P36544 23-230 L141G): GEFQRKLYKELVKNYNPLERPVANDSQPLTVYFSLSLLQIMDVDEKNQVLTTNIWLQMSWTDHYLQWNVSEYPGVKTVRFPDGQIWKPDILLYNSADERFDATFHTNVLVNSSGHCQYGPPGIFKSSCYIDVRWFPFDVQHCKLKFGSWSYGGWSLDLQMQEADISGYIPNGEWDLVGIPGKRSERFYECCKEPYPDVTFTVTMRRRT
Chain of α7–GlyR mutant chimeric channels (Homo sapiens, UniProt P36544, L141G) (P23415 247-457 partner): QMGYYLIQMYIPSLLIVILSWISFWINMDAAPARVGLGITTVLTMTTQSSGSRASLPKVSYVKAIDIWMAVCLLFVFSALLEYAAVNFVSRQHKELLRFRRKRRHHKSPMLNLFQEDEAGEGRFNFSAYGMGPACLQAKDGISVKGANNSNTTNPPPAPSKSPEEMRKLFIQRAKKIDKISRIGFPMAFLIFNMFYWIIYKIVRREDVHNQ
Chain of α7–GlyR mutant chimeric channels (Homo sapiens, UniProt P36544, L141A) (P36544 23-230 L141A): as the sequence (P36544 23-230 L141G) above, with G119A counted along it
Chain of α7–GlyR mutant chimeric channels (Homo sapiens, UniProt P36544, L141A) (P23415 247-457 partner): as the sequence (P23415 247-457 partner) above
Chain of α7–GlyR mutant chimeric channels (Homo sapiens, UniProt P36544, Q79G) (P36544 23-230 Q79G): as the sequence (P36544 23-230 L141G) above, with Q57G, G119L counted along it
Chain of α7–GlyR mutant chimeric channels (Homo sapiens, UniProt P36544, Q79G) (P23415 248-457 partner): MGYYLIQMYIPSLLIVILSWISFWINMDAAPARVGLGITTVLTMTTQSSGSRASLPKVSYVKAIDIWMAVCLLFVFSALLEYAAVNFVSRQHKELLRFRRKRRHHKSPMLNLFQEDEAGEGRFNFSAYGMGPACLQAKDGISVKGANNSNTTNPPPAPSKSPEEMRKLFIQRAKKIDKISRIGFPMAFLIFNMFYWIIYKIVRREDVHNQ
Chain of α7–GlyR mutant chimeric channels (Homo sapiens, UniProt P36544, P216A) (P36544 23-230 P216A): as the sequence (P36544 23-230 L141G) above, with G119L, P194A counted along it
Chain of α7–GlyR mutant chimeric channels (Homo sapiens, UniProt P36544, P216A) (P23415 247-457 partner): as the sequence (P23415 247-457 partner) above
Chain of α7–GlyR mutant chimeric channels (Homo sapiens, UniProt P36544, W77F) (P36544 23-230 W77F): as the sequence (P36544 23-230 L141G) above, with W55F, G119L counted along it
Chain of α7–GlyR mutant chimeric channels (Homo sapiens, UniProt P36544, W77F) (P23415 248-457 partner): as the sequence (P23415 248-457 partner) above
Chain of α7–GlyR mutant chimeric channels (Homo sapiens, UniProt P36544, L141P) (P36544 23-230 L141P): as the sequence (P36544 23-230 L141G) above, with G119P counted along it
Chain of α7–GlyR mutant chimeric channels (Homo sapiens, UniProt P36544, L141P) (P23415 247-457 partner): as the sequence (P23415 247-457 partner) above
Chain of α7–GlyR mutant chimeric channels (Homo sapiens, UniProt P36544, L131G) (P36544 23-229 L131G): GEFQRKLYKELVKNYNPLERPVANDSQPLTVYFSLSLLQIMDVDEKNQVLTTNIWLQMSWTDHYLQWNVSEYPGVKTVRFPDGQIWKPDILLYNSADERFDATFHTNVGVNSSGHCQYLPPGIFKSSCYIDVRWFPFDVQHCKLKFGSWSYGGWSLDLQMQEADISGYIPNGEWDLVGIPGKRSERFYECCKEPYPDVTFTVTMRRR
Chain of α7–GlyR mutant chimeric channels (Homo sapiens, UniProt P36544, L131G) (P23415 248-457 partner): as the sequence (P23415 248-457 partner) above
Chain of α7–GlyR mutant chimeric channels (Homo sapiens, UniProt P36544, P216V) (P36544 23-230 P216V): as the sequence (P36544 23-230 L141G) above, with G119L, P194V counted along it
Chain of α7–GlyR mutant chimeric channels (Homo sapiens, UniProt P36544, P216V) (P23415 248-457 partner): as the sequence (P23415 248-457 partner) above
Chain of α7–GlyR mutant chimeric channels (Homo sapiens, UniProt P36544, L141F) (P36544 23-230 L141F): as the sequence (P36544 23-230 L141G) above, with G119F counted along it
Chain of α7–GlyR mutant chimeric channels (Homo sapiens, UniProt P36544, L141F) (P23415 247-457 partner): as the sequence (P23415 247-457 partner) above
Chain of α7–GlyR mutant chimeric channels (Homo sapiens, UniProt P36544, Q79A) (P36544 23-230 Q79A): as the sequence (P36544 23-230 L141G) above, with Q57A, G119L counted along it
Chain of α7–GlyR mutant chimeric channels (Homo sapiens, UniProt P36544, Q79A) (P23415 248-457 partner): as the sequence (P23415 248-457 partner) above
Chain of α7–GlyR mutant chimeric channels (Homo sapiens, UniProt P36544, L131Q) (P36544 23-230 L131Q): as the sequence (P36544 23-230 L141G) above, with L109Q, G119L counted along it
Chain of α7–GlyR mutant chimeric channels (Homo sapiens, UniProt P36544, L131Q) (P23415 247-457 partner): as the sequence (P23415 247-457 partner) above
Chain of α7–GlyR mutant chimeric channels (Homo sapiens, UniProt P36544, Q139G) (P36544 23-230 Q139G): as the sequence (P36544 23-230 L141G) above, with Q117G, G119L counted along it
Chain of α7–GlyR mutant chimeric channels (Homo sapiens, UniProt P36544, Q139G) (P23415 248-457 partner): as the sequence (P23415 248-457 partner) above

Compound COC(=O)[C@H]1[C@@H](OC(=O)c2ccccc2)C[C@@H]2CC[C@H]1N2C [cocaine] has an EC50 ([1]; Avg) greater than 30 µM, an EC50 ([1]; single determinations) greater than 30 µM and an EC50 ([2]; Avg) of 8.3 µM. The EC50 ([2]; single determinations) was 5.6 µM and 11 µM, the EC50 ([3]; Avg) was 3.4 µM and the EC50 ([3]; single determinations) was 3.4 µM. For the same compound, the EC50 ([4]; Avg) was greater than 30 µM, the EC50 ([4]; single determinations) was greater than 30 µM and the EC50 ([5]; Avg) was greater than 30 µM. It also gave an EC50 ([5]; single determinations) greater than 30 µM, an EC50 ([6]; Avg) greater than 30 µM and an EC50 ([6]; single determinations) greater than 30 µM. The EC50 ([7]; Avg) was 5 µM, the EC50 ([7]; single determinations) was 6.7 µM and 3.3 µM and the EC50 ([8]; Avg) was greater than 30 µM. It also gave an EC50 ([8]; single determinations) greater than 30 µM, an EC50 ([9]; Avg) greater than 30 µM and an EC50 ([9]; single determinations) greater than 30 µM. It also gave an EC50 ([10]; Avg) greater than 30 µM, an EC50 ([10]; single determinations) greater than 30 µM and an EC50 ([11]; Avg) greater than 30 µM. It also gave an EC50 ([11]; single determinations) greater than 30 µM, an EC50 ([12]; Avg) greater than 30 µM and an EC50 ([12]; single determinations) greater than 30 µM. For the same compound, the “range of cocaine affinities for DAT” value (DAT) was 0.23 to 2.0 µM, the “Sheet 3g, Mean (per-rat counts at each dose)” value ([13]; Dose 0.0625) was 32.0909 and the “Sheet 3h, Mean (sheet 3g count x dose, intake)” value (from here on “Sheet 3h, Mean”) ([13]; Dose 0.0625) was 2.006. For the same compound, the “Sheet 3g, Mean (per-rat counts at each dose)” value ([13]; Dose 0.125) was 43.1818, the “Sheet 3h, Mean” value ([13]; Dose 0.125) was 5.398 and the “Sheet 3g, Mean (per-rat counts at each dose)” value ([13]; Dose 0.25) was 30.2727. The “Sheet 3h, Mean” value ([13]; Dose 0.25) was 7.568, the “Sheet 3g, Mean (per-rat counts at each dose)” value ([13]; Dose 0.5) was 19.0909 and the “Sheet 3h, Mean” value ([13]; Dose 0.5) was 9.545. For the same compound, the “Sheet 3g, Mean (per-rat counts at each dose)” value ([13]; Dose 1) was 10.8182, the “Sheet 3h, Mean” value ([13]; Dose 1) was 10.8182 and the EC50 ([14]; EC50 at a75HT3 L141G G175K Y210F Y217F, AVG, sheet 1e) was 1.58 µM. The EC50 ([14]; EC50 at a75HT3 L141G G175K Y210F Y217F, sheet 1e, single determinations) was 1.8 µM and 1 µM and 2.64 µM and 0.81 µM and 1.25 µM and 0.84 µM and 2.8 µM, the Response ([14]; conc 0.0137 uM, ED Fig. 2c) was 0.067 and the Response ([14]; conc 0.0137174 uM, ED Fig. 2b) was 0.067. The Response ([14]; conc 0.123 uM, ED Fig. 2c) was 0.063, the Response ([14]; conc 0.123457 uM, ED Fig. 2b) was 0.063 and the “Max normalized Response” value ([14]; conc 0.137 uM) was 0.07313. The Response ([14]; conc 0.37 uM, ED Fig. 2c) was 0.098, the Response ([14]; conc 0.37037 uM, ED Fig. 2b) was 0.098 and the Response ([14]; conc 0.457247 uM, ED Fig 3a) was 0.103. The Response ([14]; conc 1.11111 uM, ED Fig. 2b) was 0.363, the Response ([14]; conc 1.37174 uM, ED Fig 3a) was 0.237 and the Response ([14]; conc 3.33333 uM, ED Fig. 2b) was 0.825. The “Max normalized Response” value ([14]; conc 3.7 uM) was 0.5001, the Response ([14]; conc 10 uM, ED Fig. 2b) was 1.02 and the Response ([14]; conc 10 uM, ED Fig. 2c) was 1.023. The “Max normalized Response” value ([14]; conc 11.1 uM) was 0.7653, the Response ([14]; conc 12.3457 uM, ED Fig 3a) was 1.106 and the Response ([14]; conc 30 uM, ED Fig. 2b) was 0.86. For the same compound, the Response ([14]; conc 30 uM, ED Fig. 2c) was 0.864, the “Max normalized Response” value ([14]; conc 33.3 uM) was 0.8419 and the Response ([14]; conc 37.037 uM, ED Fig 3a) was 0.885. For the same compound, the “Max normalized Response” value ([14]; conc 100 uM) was 0.9656, the EC50 ([14]; half-maximum effective concentration (EC50), HEK293, fluorescence membrane potential assay) was 1.5 ± 0.3 µM and the “peak brain cocaine concentration relative to EC50 for coca-5HT3” value ([14]; intravenous dose in rats, Pan et al 1991) was “approximately 1.5 fold”.
